In assay [1] the target is T1, SHV-5 β-lactamase (Class A ESBL) (Klebsiella pneumoniae, UniProt P0A3M1).
T1 construct: made in house; host or cells: E. coli BL21(DE3)
The assay can be described thus: β-Lactamase inhibition, SHV-5. The format is biochemical. Put shortly:
(§1)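 Native untagged β-lactamases were expressed in E. coli BL21(DE3), then purified by cation exchange and gel filtration. Enzyme was preincubated with inhibitor for 15 min at 37 °C before substrate was added. Imipenem (A300) served KPC-2 and cefotaxime (A260) served SHV-5. IC50 was taken from initial hydrolysis rates relative to no-inhibitor controls.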

For assay [2], the system named is S. aureus MSSA-7 producing penicillinase PC-1. In words: Broth microdilution MIC, S. aureus MSSA-7 PC-1. The note with it: fixed 4 μg/mL piperacillin; CAMHB, 16-20 hours at 37° C. The format is cell-based. Put shortly: (§2)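 Growth inhibition by test compound in presence of a fixed 4 μg/ml β-lactam; CLSI microdilution in CAMHB, visual endpoint after overnight 37° C incubation.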
On the technique in general: Dilution methods test growth across graded concentrations, often in twofold steps.

In assay [3] the target is T2, OXA-1 β-lactamase (Class D oxacillinase) (Escherichia coli, UniProt P13661).
T2 construct: made in house; host or cells: E. coli BL21(DE3)
T2 sequence (P13661 26-276): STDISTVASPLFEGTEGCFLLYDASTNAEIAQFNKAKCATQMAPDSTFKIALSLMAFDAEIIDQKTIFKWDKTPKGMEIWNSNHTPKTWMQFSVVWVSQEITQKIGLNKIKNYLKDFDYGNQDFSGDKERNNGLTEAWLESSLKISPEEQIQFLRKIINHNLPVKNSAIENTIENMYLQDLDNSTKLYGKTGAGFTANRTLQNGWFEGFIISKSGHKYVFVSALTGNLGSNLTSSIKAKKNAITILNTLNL
In words: β-Lactamase inhibition, OXA-1. The format is biochemical. The note with it: nitrocefin 100 μM, 486 nm; 15 min preincubation at 37° C., PBS pH 7.4. In a few lines:
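Untagged enzyme from E. coli BL21(DE3), purified by Capto S then Superdex 75; 15 min 37 °C preincubation with inhibitor; KPC-2 read with imipenem at 300 nm, SHV-5 with cefotaxime at 260 nm, OXA-1 with nitrocefin 100 μM final at 486 nm; 10 min kinetic read; IC50 vs uninhibited wells.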

Assay [4] has as its target T3, VIM-2 metallo-β-lactamase (Class B) (Pseudomonas aeruginosa, UniProt Q9K2N0).
T3 construct: made in house; host or cells: E. coli BL21(DE3)
In words: β-Lactamase inhibition, VIM-2. The format is biochemical. As to conditions: nitrocefin 100 μM, 486 nm; 15 min preincubation at 37° C., PBS pH 7.4. Put shortly: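 IC50 reflects the inhibitor concentration cutting the initial nitrocefin hydrolysis rate by half, compared with control wells lacking inhibitor. Substrate was used at 100 μM final after a 15 min, 37 °C enzyme–inhibitor preincubation.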

Assay [5] has as its target T4, p99 AmpC β-lactamase (Class C) (Enterobacter cloacae, UniProt P05364).
T4 construct: made in house; host or cells: E. coli BL21(DE3)
The assay can be described thus: β-Lactamase inhibition, p99 AmpC. The format is biochemical.

Assay [6] concerns E. cloacae 144200 expressing Class C P99 AmpC. The assay can be described thus: Broth microdilution MIC, E. cloacae 144200 p99 AmpC. It counts as cell-based. The note with it: fixed 4 μg/mL ceftazidime; CAMHB, 16-20 hours at 37° C. In a few lines:
as §2

Assay [7] relates to E. coli ESBL4 expressing CTX-M-15. In words: Broth microdilution MIC, E. coli ESBL4 CTX-M-15. It counts as cell-based. The note with it: fixed 4 μg/mL ceftazidime; CAMHB, 16-20 hours at 37° C. In a few lines:
as §2

Assay [8] concerns K. pneumoniae 156319 expressing KPC-3. The assay can be described thus: Broth microdilution MIC, K. pneumoniae 156319 KPC-3. The note with it: fixed 4 μg/mL meropenem; CAMHB, 16-20 hours at 37° C. It counts as cell-based. Put shortly: as §2
The test system of assay [9] is P. aeruginosa Ps296 expressing VIM-2. In words: Broth microdilution MIC, P. aeruginosa Ps296 VIM-2. The note with it: fixed 4 μg/mL meropenem; CAMHB, 16-20 hours at 37° C. The format is cell-based. Put shortly:
as §2

Assay [10] addresses T5, KPC-2 β-lactamase (Class A carbapenemase) (Klebsiella pneumoniae, UniProt Q9F663).
T5 construct: made in house; host or cells: E. coli BL21(DE3)
In words: β-Lactamase inhibition, KPC-2. It counts as biochemical. As to conditions: imipenem substrate, 300 nm; 15 min preincubation at 37° C., PBS pH 7.4. Put shortly:
as §1

In assay [11] the test system is K. pneumoniae A-1797 expressing KPC-2 and VIM-4. In words: Broth microdilution MIC, K. pneumoniae A-1797 KPC-2/VIM-4. It counts as cell-based. The note with it: fixed 4 μg/mL meropenem; CAMHB, 16-20 hours at 37° C. Put shortly: as §2

T4 sequence (P05364 21-381): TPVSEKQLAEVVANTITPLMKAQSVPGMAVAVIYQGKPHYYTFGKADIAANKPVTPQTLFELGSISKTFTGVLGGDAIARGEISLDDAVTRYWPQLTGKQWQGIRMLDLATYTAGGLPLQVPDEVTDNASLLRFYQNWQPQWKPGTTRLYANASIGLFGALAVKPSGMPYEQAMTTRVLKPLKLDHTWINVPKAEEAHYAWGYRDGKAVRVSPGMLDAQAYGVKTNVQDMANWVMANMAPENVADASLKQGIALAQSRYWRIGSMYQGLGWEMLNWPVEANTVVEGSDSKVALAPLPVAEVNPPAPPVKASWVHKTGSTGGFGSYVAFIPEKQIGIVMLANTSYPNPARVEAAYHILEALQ
T1 sequence (P0A3M1 22-286): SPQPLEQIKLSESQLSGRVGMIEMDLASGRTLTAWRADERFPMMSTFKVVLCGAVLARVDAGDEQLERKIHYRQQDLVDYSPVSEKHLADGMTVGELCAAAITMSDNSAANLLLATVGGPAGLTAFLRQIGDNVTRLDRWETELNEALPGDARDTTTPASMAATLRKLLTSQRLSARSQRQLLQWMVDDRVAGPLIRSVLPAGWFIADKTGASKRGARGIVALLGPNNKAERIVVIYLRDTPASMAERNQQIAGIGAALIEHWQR
T5 sequence (Q9F663 25-293, looked up): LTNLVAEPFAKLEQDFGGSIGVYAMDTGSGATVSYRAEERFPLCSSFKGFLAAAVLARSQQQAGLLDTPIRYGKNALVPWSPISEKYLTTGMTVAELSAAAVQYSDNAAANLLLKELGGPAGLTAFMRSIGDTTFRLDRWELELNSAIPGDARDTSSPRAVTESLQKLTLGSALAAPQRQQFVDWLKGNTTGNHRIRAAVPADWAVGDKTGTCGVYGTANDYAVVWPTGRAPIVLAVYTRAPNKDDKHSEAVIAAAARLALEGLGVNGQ

Usually IC50 stands for the midpoint of a concentration-inhibition curve. Low values mean greater potency in that assay, high ones weaker potency in that assay. Consider `NCCN1CCC(NCC(=O)N[C@H]2Cc3cccc(C(=O)O)c3OB2O)CC1` [Example 52, 3-{2-[1-(2-Amino-ethyl)-piperidin-4-ylamino]-acetylamino}-2-hydroxy-3,4-dihydro-2H-benzo[e][1,2]oxaborinine-8-carboxylic acid], for which the concentration for half-maximal inhibition (IC50) is less than 100 nM in assay [1]; less than 100 nM in [3]; 1000 to 10000 nM in assay [4]; less than 100 nM in [5]; less than 100 nM in assay [10]. For the same molecule, the “MIC of example compound in presence of fixed β-lactam: Fixed Pip, S. aureus MSSA-7 PC-1” value in assay [2] was “C (the MIC in the presence of <4 μg/mL of a β-lactamase inhibitor)”. In assay [6], the “MIC of example compound in presence of fixed β-lactam: Fixed CAZ, E. cl. 144200 p99 AmpC” value is listed as “C (the MIC in the presence of <4 μg/mL of a β-lactamase inhibitor)”. Moreover, the “MIC of example compound in presence of fixed β-lactam: Fixed CAZ, E. coli ESBL4 CTX-M-15” value in assay [7] is reported as “C (the MIC in the presence of <4 μg/mL of a β-lactamase inhibitor)”. The “MIC of example compound in presence of fixed β-lactam: Fixed Mero, K. P. 156319 KPC-3” value in [8] is on record as “C (the MIC in the presence of <4 μg/mL of a β-lactamase inhibitor)”. Moreover, in assay [9], the “MIC of example compound in presence of fixed β-lactam: Fixed Mero, P. aerug. Ps296 VIM-2” value is “B (the MIC in the presence of between 8 and 32 μg/mL of a β-lactamase inhibitor)”. Besides, the “MIC of example compound in presence of fixed β-lactam: Fixed Mero, K. P. A-1797 KPC-2 VIM-4” value in assay [11] is “B (the MIC in the presence of between 8 and 32 μg/mL of a β-lactamase inhibitor)”.

(Values after patent publication US10294248B2, “Beta-lactamase inhibitors” (VenatoRx Pharmaceuticals, Inc., priority 2013, dated 2019).)
